From ChEMBL document CHEMBL5661973, “BI 2536, a potent and selective inhibitor of polo-like kinase 1, inhibits tumor growth in vivo” (Curr Biol, 2007)
Calls of active or inactive are those of the source. The rule behind the calls is not given here.

Experiments:
[1] = species on record: Mus musculus; test: Inhibition of mouse Plk1
[2] = target: Tyrosine-protein kinase ABL1 (Homo sapiens, UniProt P00519); test: Inhibition of Abl (unknown origin)
[3] = target: Serine/threonine-protein kinase B-raf (Homo sapiens, UniProt P15056); test: Inhibition of B-RAF (unknown origin)
[4] = target: RAF proto-oncogene serine/threonine-protein kinase (Homo sapiens, UniProt P04049); test: Inhibition of C-RAF (unknown origin)
[5] = target: Tyrosine-protein kinase CSK (Homo sapiens, UniProt P41240); test: Inhibition of CSK (unknown origin)
[6] = target: Receptor tyrosine-protein kinase erbB-4 (Homo sapiens, UniProt Q15303); test: Inhibition of ErbB4 (unknown origin)
[7] = target: Fibroblast growth factor receptor 3 (Homo sapiens, UniProt P22607); test: Inhibition of FGFR3 (unknown origin)
[8] = target: Ephrin type-A receptor 3 (Homo sapiens, UniProt P29320); test: Inhibition of Hek (unknown origin)
[9] = target: Mitogen-activated protein kinase 8 (Homo sapiens, UniProt P45983); test: Inhibition of JNK1 (unknown origin)
[10] = target: T1, Dual specificity mitogen-activated protein kinase kinase 1 (Homo sapiens, UniProt Q02750); test: Inhibition of MEK1 (unknown origin)
[11] = target: T1, Dual specificity mitogen-activated protein kinase kinase 1; test: Inhibition of MKK1 (unknown origin)
[12] = target: Serine/threonine-protein kinase Nek6 (Homo sapiens, UniProt Q9HC98); test: Inhibition of Nek6 (unknown origin)
[13] = target: Mitogen-activated protein kinase 14 (Homo sapiens, UniProt Q16539); test: Inhibition of p38alpha (unknown origin)
[14] = target: Mitogen-activated protein kinase 11 (Homo sapiens, UniProt Q15759); test: Inhibition of p38beta (unknown origin)
[15] = target: Mitogen-activated protein kinase 12 (Homo sapiens, UniProt P53778); test: Inhibition of p38gamma (unknown origin)
[16] = target: Serine/threonine-protein kinase PAK 2 (Homo sapiens, UniProt Q13177); test: Inhibition of PAK2 (unknown origin)
[17] = target: Platelet-derived growth factor receptor alpha (Homo sapiens, UniProt P16234); test: Inhibition of PDGFRa (unknown origin)
[18] = target: Platelet-derived growth factor receptor beta (Homo sapiens, UniProt P09619); test: Inhibition of PDGFRb (unknown origin)
[19] = target: Phosphatidylinositol 4,5-bisphosphate 3-kinase catalytic subunit alpha isoform (Homo sapiens, UniProt P42336); test: Inhibition of PI3Ka (unknown origin)
[20] = target: RAC-beta serine/threonine-protein kinase (Homo sapiens, UniProt P31751); test: Inhibition of PKBbeta (unknown origin)
[21] = target: Macrophage-stimulating protein receptor (Homo sapiens, UniProt Q04912); test: Inhibition of Ron (unknown origin)
[22] = target: Serine/threonine-protein kinase Sgk1 (Homo sapiens, UniProt O00141); test: Inhibition of SGK (unknown origin)
[23] = target: Angiopoietin-1 receptor (Homo sapiens, UniProt Q02763); test: Inhibition of Tie2 (unknown origin)
[24] = system: HeLa; test: Antimitotic activity against human HeLa cells assessed as arrest in G2/M phase measuring by accumulation in 4N DNA content at 10 nM incubated for 24 hrs by flow cytometric analysis; format: functional, cell-based
[25] = system: HeLa; test: Antimitotic activity against human HeLa cells assessed as cell cycle at 10 nM incubated for 2 hrs by immunofluorescence analysis; format: functional, cell-based
[26] = system: HeLa; test: Antimitotic activity against human HeLa cells assessed as change in anaphase at 25 nM incubated for 2 hrs by immunofluorescence analysis; format: functional, cell-based
[27] = system: HeLa; test: Antimitotic activity against human HeLa cells assessed as change in telophase at 25 nM incubated for 2 hrs by immunofluorescence analysis; format: functional, cell-based
[28] = system: HeLa; test: Antimitotic activity against human HeLa cells assessed as accumulation of mitotic cells with spindles at 25 nM incubated for 2 hrs by immunofluorescence analysis; format: functional, cell-based
[29] = system: HeLa; test: Antimitotic activity against human HeLa cells assessed as appearance and distribution of phenotypes at 50 nM incubated for 2 hrs by immunofluorescence analysis; format: functional, cell-based
[30] = system: HeLa; test: Antimitotic activity against human HeLa cells assessed as appearance of monopolar polo spindles at 100 to 1000 nM incubated for 2 hrs by immunofluorescence analysis; format: functional, cell-based; conditions: dose 100-1000 nM
[31] = system: HeLa; test: Antimitotic activity against human HeLa cells assessed as change in S phase at 60 nM incubated for 48 hrs by flow cytometric analysis; format: functional, cell-based
[32] = system: HeLa; test: Antimitotic activity against human HeLa cells assessed as cell arrest in G2/M phase at 60 nM incubated for 48 hrs by flow cytometric analysis; format: functional, cell-based
[33] = system: HeLa; test: Antimitotic activity against human HeLa cells assessed as DNA breakdown at 60 nM incubated after 24 hrs by flow cytometric analysis; format: functional, cell-based
[34] = system: HeLa; test: Antimitotic activity against human HeLa cells assessed as cell apoptosis at 60 nM incubated after 24 hrs by flow cytometric analysis; format: functional, cell-based
[35] = system: HeLa; test: Antimitotic activity against human HeLa cells assessed as DNA breakdown at 60 nM incubated after 48 hrs by flow cytometric analysis; format: functional, cell-based
[36] = system: HeLa; test: Antimitotic activity against human HeLa cells assessed as cell apoptosis at 60 nM incubated after 48 hrs by flow cytometric analysis; format: functional, cell-based
[37] = system: HeLa; test: Antimitotic activity against human HeLa cells assessed as accumulation in cleaved PARP p85 fragment at 60 nM incubated after 24 hrs by westernblot analysis; format: functional, cell-based
[38] = system: HeLa; test: Antimitotic activity against human HeLa cells assessed as accumulation in cleaved PARP p85 fragment at 60 nM incubated after 48 hrs by westernblot analysis; format: functional, cell-based
[39] = system: TERT-RPE1; test: Antimitotic activity against hTERT-RPE1 cells assessed as mitotic cell appearing typical polo phenotype at 100 nM by immunofluorescence analysis relative to control; format: functional, Homo sapiens
[40] = system: TERT-RPE1; test: Antimitotic activity against hTERT-RPE1 cells assessed as remaining cell arrest at 100 nM by immunofluorescence analysis relative to control; format: functional, Homo sapiens
[41] = system: BRO melanoma cell line; test: Antiproliferative activity against human BRO melanoma cell line assessed as inhibition in cell growth incubated for 72 hrs by Alamar Blue dye based fluorescence spectrophotometric analysis; format: functional
[42] = system: HCT-116; test: Antitumor activity against human HCT-116 cells xenografted female BomTac:NMRI-Foxn1nu mouse assessed as tumor suppression at 40 mg/kg, iv twice per week administrated for 2 consecutive days relative to control; format: functional; conditions: time 2 day
[43] = system: HCT-116; test: Antitumor activity against human HCT-116 cells xenografted female BomTac:NMRI-Foxn1nu mouse assessed as T/C at 40 mg/kg, iv once per week administrated for 2 consecutive days relative to control; format: functional; conditions: time 4 day
[44] = Toxicity in against human HCT-116 cells xenografted female BomTac:NMRI-Foxn1nu mouse assessed as body weight change at 40 mg/kg, iv once per week administrated for 2 consecutive days; format: organism-based; conditions: in vivo, 48 h, time 2 day
[45] = Toxicity in against human HCT-116 cells xenografted female BomTac:NMRI-Foxn1nu mouse assessed as body weight change at 40 mg/kg, iv twice per week administrated for 2 consecutive days; format: organism-based; conditions: in vivo, 96 h, time 4 day
[46] = system: HCT-116; test: Antitumor activity against human HCT-116 cells xenografted female BomTac:NMRI-Foxn1nu mouse assessed as induction in tumor regression at 50 mg/kg, iv twice per week administrated for 2 consecutive days relative to control; format: functional, organism-based; conditions: time 4.0 day
[47] = system: BXPC-3; test: Antitumor activity against human BXPC-3 cells xenografted female BomTac:NMRI-Foxn1nu mouse assessed as T/C at 50 mg/kg, iv twice per week administrated for 2 consecutive days relative to control; format: functional; conditions: time 4 day
[48] = system: A549; test: Antitumor activity against human A549 cells xenografted female BomTac:NMRI-Foxn1nu mouse assessed as T/C at 50 mg/kg, iv twice per week administrated for 2 consecutive days relative to control; format: functional; conditions: time 4 day
[49] = system: NCI-H460; test: Antitumor activity against human NCI-H460 cells xenografted female BomTac:NMRI-Foxn1nu mouse assessed as increase in mitotic index at 60 mg/kg, iv after 24 hrs administration by immunohistochemical method; format: functional, organism-based
[50] = system: NCI-H460; test: Antitumor activity against human NCI-H460 cells xenografted female BomTac:NMRI-Foxn1nu mouse assessed as increase in histone H3 phosphorylation at 60 mg/kg, iv after 24 hrs administration by immunohistochemical method; format: functional, organism-based
[51] = system: NCI-H460; test: Antitumor activity against human NCI-H460 cells xenografted female BomTac:NMRI-Foxn1nu mouse assessed as appearance of massive tumor cell at 60 mg/kg, iv after 48 hrs administration by TUNEL staining; format: functional, organism-based
[52] = system: NCI-H460; test: Antitumor activity against human NCI-H460 cells xenografted female BomTac:NMRI-Foxn1nu mouse assessed as appearance of cell apoptosis at 60 mg/kg, iv after 47 hrs administration by MRI assay; format: functional, organism-based
[53] = system: HCT-116; test: Antitumor activity against human HCT-116 cells xenografted female BomTac:NMRI-Foxn1nu mouse assessed as apparent diffusion coefficient of water at 50 mg/kg, iv administration and measured on day 4 by MRI assay; format: functional, organism-based; conditions: time 4.0 day

T1 sequence (Q02750 whole entry): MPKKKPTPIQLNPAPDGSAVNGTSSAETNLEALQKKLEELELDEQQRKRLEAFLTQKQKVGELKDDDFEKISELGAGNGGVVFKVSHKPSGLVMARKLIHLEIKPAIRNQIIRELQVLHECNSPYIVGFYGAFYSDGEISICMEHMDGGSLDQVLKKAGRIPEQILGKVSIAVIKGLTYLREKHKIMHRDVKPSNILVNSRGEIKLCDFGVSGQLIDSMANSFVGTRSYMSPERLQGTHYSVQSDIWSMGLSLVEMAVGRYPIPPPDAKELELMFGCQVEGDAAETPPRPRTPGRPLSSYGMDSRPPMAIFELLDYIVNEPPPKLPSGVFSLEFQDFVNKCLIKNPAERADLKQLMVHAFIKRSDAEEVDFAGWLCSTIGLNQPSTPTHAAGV
Sequence of Serine/threonine-protein kinase Nek6 (Q9HC98 whole entry): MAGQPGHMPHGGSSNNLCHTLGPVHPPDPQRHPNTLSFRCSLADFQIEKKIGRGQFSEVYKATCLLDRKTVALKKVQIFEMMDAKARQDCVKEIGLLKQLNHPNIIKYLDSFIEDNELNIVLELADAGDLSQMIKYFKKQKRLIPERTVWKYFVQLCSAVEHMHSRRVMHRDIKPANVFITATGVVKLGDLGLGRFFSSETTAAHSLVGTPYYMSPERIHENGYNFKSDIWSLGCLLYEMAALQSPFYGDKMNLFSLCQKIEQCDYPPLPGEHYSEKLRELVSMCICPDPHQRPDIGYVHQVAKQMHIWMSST
Sequence of Platelet-derived growth factor receptor alpha (P16234 whole entry): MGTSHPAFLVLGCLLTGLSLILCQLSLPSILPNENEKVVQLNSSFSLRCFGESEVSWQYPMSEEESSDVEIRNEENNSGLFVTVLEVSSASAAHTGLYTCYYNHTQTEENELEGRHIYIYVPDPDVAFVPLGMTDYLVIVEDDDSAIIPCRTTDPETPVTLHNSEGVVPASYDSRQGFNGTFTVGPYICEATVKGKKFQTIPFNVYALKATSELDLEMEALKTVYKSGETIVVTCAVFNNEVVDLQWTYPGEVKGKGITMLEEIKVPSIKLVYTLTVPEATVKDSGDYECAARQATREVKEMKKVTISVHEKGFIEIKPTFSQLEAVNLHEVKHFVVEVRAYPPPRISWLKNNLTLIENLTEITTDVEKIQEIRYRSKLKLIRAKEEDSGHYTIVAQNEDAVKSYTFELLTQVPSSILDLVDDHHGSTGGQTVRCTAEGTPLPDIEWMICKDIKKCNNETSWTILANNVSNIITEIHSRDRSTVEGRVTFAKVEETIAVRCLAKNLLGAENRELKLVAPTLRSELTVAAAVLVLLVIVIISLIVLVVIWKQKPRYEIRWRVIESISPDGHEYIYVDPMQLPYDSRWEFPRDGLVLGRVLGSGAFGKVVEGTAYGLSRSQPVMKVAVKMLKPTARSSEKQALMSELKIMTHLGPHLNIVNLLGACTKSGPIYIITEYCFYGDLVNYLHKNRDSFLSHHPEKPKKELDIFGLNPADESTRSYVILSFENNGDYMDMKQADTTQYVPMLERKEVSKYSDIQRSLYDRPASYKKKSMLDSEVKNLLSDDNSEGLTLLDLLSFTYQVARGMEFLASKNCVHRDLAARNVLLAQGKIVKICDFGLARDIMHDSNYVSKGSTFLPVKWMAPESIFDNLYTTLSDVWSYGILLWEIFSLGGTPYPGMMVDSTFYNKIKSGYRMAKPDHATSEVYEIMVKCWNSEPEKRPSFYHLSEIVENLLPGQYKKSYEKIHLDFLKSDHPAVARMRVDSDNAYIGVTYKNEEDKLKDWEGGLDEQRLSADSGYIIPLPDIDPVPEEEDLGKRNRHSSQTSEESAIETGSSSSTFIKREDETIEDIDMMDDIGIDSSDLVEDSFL
Sequence of RAF proto-oncogene serine/threonine-protein kinase (P04049 whole entry): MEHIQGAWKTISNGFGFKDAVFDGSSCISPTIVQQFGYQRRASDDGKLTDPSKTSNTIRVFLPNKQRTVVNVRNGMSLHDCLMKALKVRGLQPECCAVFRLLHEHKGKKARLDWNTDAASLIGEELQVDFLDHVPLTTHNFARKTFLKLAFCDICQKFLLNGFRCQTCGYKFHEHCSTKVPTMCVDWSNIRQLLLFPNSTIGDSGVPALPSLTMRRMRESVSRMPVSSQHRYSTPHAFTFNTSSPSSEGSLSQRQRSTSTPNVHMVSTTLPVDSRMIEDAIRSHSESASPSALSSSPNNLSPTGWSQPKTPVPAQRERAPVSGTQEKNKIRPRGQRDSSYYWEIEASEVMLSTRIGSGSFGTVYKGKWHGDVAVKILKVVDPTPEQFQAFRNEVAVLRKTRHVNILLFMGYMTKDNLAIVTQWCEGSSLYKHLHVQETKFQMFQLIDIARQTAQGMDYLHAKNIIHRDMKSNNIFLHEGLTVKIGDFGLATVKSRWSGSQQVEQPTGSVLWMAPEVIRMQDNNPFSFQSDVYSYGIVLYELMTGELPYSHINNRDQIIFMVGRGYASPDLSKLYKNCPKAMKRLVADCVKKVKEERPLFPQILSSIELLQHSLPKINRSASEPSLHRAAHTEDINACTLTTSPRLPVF
Sequence of Receptor tyrosine-protein kinase erbB-4 (Q15303 whole entry): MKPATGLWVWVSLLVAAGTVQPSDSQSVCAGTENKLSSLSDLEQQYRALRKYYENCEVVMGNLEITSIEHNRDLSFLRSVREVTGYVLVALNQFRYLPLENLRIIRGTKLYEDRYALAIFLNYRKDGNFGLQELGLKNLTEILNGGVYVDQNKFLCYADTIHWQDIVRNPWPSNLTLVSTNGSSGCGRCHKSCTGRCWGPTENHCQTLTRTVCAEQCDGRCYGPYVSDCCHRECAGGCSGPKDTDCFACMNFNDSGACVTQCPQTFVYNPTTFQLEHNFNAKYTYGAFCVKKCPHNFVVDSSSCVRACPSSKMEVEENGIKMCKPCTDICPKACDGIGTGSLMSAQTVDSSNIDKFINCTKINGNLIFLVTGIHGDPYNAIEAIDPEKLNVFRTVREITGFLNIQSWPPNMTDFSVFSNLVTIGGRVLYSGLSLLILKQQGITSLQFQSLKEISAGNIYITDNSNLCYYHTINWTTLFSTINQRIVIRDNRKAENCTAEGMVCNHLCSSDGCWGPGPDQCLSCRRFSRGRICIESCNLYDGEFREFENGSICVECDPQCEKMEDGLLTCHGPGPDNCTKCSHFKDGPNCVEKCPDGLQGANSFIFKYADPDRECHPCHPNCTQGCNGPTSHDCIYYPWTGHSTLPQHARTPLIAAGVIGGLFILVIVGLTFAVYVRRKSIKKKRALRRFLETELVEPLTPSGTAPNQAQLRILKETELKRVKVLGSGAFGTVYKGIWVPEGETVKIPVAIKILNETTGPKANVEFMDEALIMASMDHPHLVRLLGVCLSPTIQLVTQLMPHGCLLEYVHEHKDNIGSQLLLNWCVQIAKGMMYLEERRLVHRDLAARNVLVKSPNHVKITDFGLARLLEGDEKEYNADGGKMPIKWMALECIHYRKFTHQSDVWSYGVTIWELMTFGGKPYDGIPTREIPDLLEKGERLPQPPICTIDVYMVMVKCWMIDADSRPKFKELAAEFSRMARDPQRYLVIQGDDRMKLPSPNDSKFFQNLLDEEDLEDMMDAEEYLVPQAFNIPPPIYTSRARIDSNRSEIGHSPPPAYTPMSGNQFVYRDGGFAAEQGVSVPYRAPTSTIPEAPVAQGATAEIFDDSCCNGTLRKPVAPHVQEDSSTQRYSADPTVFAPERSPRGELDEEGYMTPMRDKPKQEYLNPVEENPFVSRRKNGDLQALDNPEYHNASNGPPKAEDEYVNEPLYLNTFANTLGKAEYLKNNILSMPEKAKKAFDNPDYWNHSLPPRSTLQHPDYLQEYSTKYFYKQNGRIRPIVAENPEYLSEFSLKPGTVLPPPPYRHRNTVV
Sequence of Serine/threonine-protein kinase PAK 2 (Q13177 whole entry): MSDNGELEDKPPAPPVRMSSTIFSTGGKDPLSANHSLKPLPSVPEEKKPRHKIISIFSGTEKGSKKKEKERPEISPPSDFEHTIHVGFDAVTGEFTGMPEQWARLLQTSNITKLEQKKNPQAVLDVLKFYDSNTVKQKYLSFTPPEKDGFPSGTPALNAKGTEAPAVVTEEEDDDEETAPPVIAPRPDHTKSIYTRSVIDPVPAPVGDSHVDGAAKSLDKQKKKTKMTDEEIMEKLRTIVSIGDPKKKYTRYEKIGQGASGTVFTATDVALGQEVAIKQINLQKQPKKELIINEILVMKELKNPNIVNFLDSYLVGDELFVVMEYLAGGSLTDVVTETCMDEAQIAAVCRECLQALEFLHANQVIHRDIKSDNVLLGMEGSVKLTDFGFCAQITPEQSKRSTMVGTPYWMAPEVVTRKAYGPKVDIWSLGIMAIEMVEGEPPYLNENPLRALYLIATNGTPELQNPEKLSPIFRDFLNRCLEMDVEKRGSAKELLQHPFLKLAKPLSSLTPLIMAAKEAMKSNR
Sequence of Serine/threonine-protein kinase B-raf (P15056 whole entry): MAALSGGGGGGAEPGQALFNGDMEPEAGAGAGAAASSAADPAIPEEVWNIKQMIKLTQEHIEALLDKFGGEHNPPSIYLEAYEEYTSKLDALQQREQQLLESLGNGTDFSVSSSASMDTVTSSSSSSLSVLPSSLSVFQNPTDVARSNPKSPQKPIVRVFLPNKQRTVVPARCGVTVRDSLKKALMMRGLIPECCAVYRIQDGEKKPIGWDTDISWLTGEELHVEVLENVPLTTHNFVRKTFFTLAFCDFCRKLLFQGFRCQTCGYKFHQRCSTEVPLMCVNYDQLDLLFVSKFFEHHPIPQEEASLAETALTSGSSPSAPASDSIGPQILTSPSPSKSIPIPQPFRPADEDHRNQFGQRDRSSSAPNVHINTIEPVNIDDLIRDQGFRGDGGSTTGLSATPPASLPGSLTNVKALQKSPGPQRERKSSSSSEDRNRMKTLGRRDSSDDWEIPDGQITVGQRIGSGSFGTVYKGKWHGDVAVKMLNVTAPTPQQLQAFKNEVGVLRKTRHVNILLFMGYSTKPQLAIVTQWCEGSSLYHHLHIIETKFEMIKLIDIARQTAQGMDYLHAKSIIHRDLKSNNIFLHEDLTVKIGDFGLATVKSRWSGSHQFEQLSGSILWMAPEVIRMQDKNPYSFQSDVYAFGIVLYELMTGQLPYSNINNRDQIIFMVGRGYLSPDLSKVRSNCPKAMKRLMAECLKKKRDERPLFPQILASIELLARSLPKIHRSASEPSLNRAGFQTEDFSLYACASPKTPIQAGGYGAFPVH

For `CC[C@@H]1C(=O)N(C)c2cnc(Nc3ccc(C(=O)NC4CCN(C)CC4)cc3OC)nc2N1C1CCCC1` [BI-2536], the inhibition [1] was “Active”, the IC50 [2] was greater than 10 µM and the IC50 [3] was greater than 10 µM. It also gave an IC50 [4] greater than 10 µM, an IC50 [5] greater than 10 µM and an IC50 [6] of 9.91 µM. The IC50 [7] was greater than 10 µM, the IC50 [8] was greater than 10 µM and the IC50 [9] was greater than 10 µM. It also gave an IC50 [10] greater than 10 µM, an IC50 [11] greater than 10 µM and an IC50 [12] greater than 10 µM. It also gave an IC50 [13] greater than 10 µM, an IC50 [14] greater than 10 µM and an IC50 [15] greater than 10 µM. For the same compound, the IC50 [16] was greater than 10 µM, the IC50 [17] was greater than 10 µM and the IC50 [18] was greater than 10 µM. It also gave an IC50 [19] of 2.41 µM, an IC50 [20] greater than 10 µM and an IC50 [21] greater than 10 µM. The IC50 [22] was greater than 10 µM, the IC50 [23] was 6.55 µM and the Activity [24] was “Active”. The Activity [25] was “Active”, the Activity [26] was “inactive” and the Activity [27] was “inactive”. The Activity [28] was “Active”, the Activity [29] was “Active” and the Activity [30] was “Active”. For the same compound, the Activity [31] was “inactive”, the Activity [32] was “Active” and the Activity [33] was “Active”. The Activity [34] was “Active”, the Activity [35] was “Active” and the Activity [36] was “Active”. The Activity [37] was “Active”, the Activity [38] was “Active” and the Activity [39] was roughly 70%. For the same compound, the Activity [40] was roughly 30%, the EC50 [41] was 0.002 µM and the Activity [42] was 100%. For the same compound, the T/C [43] was 16%, the Activity [44] was “Non-Toxic” and the Activity [45] was “Non-Toxic”. For the same compound, the Activity [46] was “Active”, the T/C [47] was 5% and the T/C [48] was 14%. For the same compound, the Activity [49] was “Active”, the Activity [50] was “Active” and the Activity [51] was “Active”. The Activity [52] was “Active” and the Activity [53] was “Active”.
